In patent US7645755B2, “Inhibitors of c-fms kinase” (Janssen Pharmaceutical N.V., priority 2004, dated 2010):
Structures can show the parent of a compound that is named as a salt. Where two headings read alike, the source gives them in different places.

Molecular target: c-fms (Homo sapiens, UniProt P07333)
Assay: autophosphorylation, fluorescence polarization competition immunoassay for c-fms inhibition
Type: biochemical
Conditions: read-out: c-fins IC50
Protocol: The assay buffer used was 100 mM 4-(2-hydroxyethyl)piperazine 1-ethanesulfonic acid (HEPES), pH 7.5, 1 mM 1,4-dithio-DL-threitol (DTT), 0.01% (v/v) Tween-20. Compounds were diluted in assay buffer containing 4% dimethylsulfoxide (DMSO) just prior to the assay. […] The kinase reaction was initiated by adding 2 μL of 5 mM ATP (Sigma) in assay buffer. The final concentrations in the assay were 10 nM c-fms, 1 mM ATP, 5 mM MgCl2, 2% DMSO. Control reactions were ran in each plate: in positive and negative control wells, assay buffer (made 4% in DMSO) was substituted for the compound; in addition, positive control wells received 1.2 μL of 50 mM ethylenediaminetetraaceticacid (EDTA).
The plates were incubated at room temperature for 45 min. At the end of the incubation, the reaction was quenched with 1.2 μL of 50 mM EDTA (EDTA was not added to the positive control wells at this point; see above). Following a 5-min incubation, each well received 10 μL of a 1:1:3 mixture of anti-phosphotyrosine antibody, 10X, PTK green tracer, 10X (vortexed), FP dilution buffer, respectively (all from PanVera, cat. # P2837). The plate was covered, incubated for 30 min at room temperature and the fluorescence polarization was read on the Analyst. […] The reported IC50 values are averages of three independent measurements.

[1] = 10 nM c-fms, 1 mM ATP, 5 mM MgCl2, 2% DMSO, 45 min at room temperature, averages of three independent measurements

Chain of c-fms (P07333 20-972): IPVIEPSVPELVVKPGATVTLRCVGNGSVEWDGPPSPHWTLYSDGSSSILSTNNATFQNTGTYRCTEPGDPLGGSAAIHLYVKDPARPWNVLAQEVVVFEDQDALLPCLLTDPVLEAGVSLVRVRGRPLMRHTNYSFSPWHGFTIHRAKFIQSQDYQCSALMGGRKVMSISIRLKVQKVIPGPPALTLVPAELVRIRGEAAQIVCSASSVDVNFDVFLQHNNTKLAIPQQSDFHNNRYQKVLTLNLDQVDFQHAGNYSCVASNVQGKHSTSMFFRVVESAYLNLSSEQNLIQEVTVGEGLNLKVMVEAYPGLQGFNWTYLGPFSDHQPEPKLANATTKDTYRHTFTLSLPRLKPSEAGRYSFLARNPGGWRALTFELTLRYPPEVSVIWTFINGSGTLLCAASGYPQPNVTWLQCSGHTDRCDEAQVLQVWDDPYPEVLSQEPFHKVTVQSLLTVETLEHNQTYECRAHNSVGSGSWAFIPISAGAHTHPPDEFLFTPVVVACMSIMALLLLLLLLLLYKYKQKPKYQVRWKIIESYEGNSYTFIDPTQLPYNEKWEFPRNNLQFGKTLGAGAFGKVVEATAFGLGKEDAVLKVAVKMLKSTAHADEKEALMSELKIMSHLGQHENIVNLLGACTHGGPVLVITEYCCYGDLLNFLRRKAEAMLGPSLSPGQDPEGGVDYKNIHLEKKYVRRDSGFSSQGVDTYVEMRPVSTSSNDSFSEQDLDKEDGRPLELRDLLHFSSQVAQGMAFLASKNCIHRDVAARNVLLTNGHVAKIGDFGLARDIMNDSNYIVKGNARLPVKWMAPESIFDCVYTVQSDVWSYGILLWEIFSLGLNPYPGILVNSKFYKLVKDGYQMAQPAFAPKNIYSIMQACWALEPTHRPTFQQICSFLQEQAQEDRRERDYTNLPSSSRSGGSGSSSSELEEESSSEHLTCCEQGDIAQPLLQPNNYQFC

| SMILES | IC50 [1] [nM] | IC50 [nM] |
| --- | --- | --- |
| CC1(C)CC=C(c2nc(C3CCN(CCS(C)(=O)=O)CC3)ccc2NC(=O)c2nc(C#N)c[nH]2)CC1 [Example 56, 4-Cyano-1H-imidazole-2-carboxylic acid [6-(4,4-dimethyl-cyclohex-1-enyl)-1′-(2-methanesulfonyl-ethyl)-1′,2′,3′,4′,5′,6′-hexhydro-[2,4′]bipyridinyl-5-yl]-amide trifluoroacetic acid salt] | 1 | – |
| Cc1ccsc1-c1cc(N2CCN(C)CC2)ccc1NC(=O)c1ccc(C#N)o1 [Example 4, 5-Cyano-furan-2-carboxylic acid [4-(4-methyl-piperazin-1-yl)-2-(3-methyl-thiophen-2-yl)-phenyl]-amide] | – | 470 |
| CON1CCC(c2ccc(NC(=O)c3ncc(C#N)[nH]3)c(C3=CCCCC3)c2)CC1 [Example 53, 5-Cyano-1H-imidazole-2-carboxylic acid [2-cyclohex-1-enyl-4-(1-methoxy-piperidin-4-yl)-phenyl]-amide trifluoroacetic acid salt] | 5.3 | – |
| Cn1ccnc1CN1CCC(c2ccc(NC(=O)c3nc(C#N)c[nH]3)c(C3=CCCC3)c2)CC1 [Example 23, 4-Cyano-1H-imidazole-2-carboxylic acid {2-cyclopent-1-enyl-4-[1-(1-methyl-1H-imidazol-2-ylmethyl)-piperidin-4-yl]-phenyl}-amide trifluoroacetic acid salt] | 6.6 | – |
| C[C@H]1CC(c2ccc(NC(=O)c3ncc(C#N)[nH]3)c(C3=CCCCC3)c2)C[C@H](C)N1 (stereo partly drawn) [Example 51b, 5-cyano-1H-imidazole-2-carboxylic acid [2-cyclohex-1-enyl-4-(trans-2,6-dimethyl-piperidin-4-yl)-phenyl]-amide bis trifluoroacetic acid salt] | 0.4 | – |
| CS(=O)(=O)CCN1CCC(c2ccc(NC(=O)c3nc(C#N)c[nH]3)c(C3=CCCCC3)n2)CC1 [Example 58, 5-Cyano-1H-imidazole-2-carboxylic acid [6-cyclohex-1-enyl-1′-(2-methanesulfonyl-ethyl)-1′,2′,3′,4′,5′,6′-hexahydro-[2,4′]bipyridinyl-5-yl]-amide] | 7 | – |
| CC(=O)N1CCC(c2ccc(NC(=O)c3nc(C#N)c[nH]3)c(C3=CCS(=O)(=O)CC3)c2)CC1 [Example 37, 4-Cyano-1H-imidazole-2-carboxylic acid [4-(1-acetyl-piperidin-4-yl)-2-(1,1-dioxo-1,2,3,6-tetrahydro-1λ^6-thiopyran-4-yl)-phenyl]-amide] | 60 | – |
| CN(C)CC(=O)N1CCC(c2ccc(NC(=O)c3nc(C#N)c[nH]3)c(C3=CCC(C)(C)CC3)n2)CC1 [Example 55, 4-Cyano-1H-imidazole-2-carboxylic acid [1′-(2-dimethylamino-acetyl)-6-(4,4-dimethyl-cyclohex-1-enyl)-1′,2′,3′,4′,5′,6′-hexahydro-[2,4′]bipyridinyl-5-yl]-amide trifluoroacetic acid salt] | 0.7 | – |
| CC(=O)N1CCC(c2ccc(NC(=O)c3cc(C#N)c[nH]3)c(C3=CCCCC3)c2)CC1 [Example 15, 4-Cyano-1H-pyrrole-2-carboxylic acid [4-(1-acetyl-piperidin-4-yl)-2-cyclohex-1-enyl-phenyl]-amide] | 28 | – |
| CNCC(=O)N1CCC(c2ccc(NC(=O)c3nc(C#N)c[nH]3)c(C3=CCCCC3)c2)CC1 [Example 38b, 4-Cyano-1H-imidazole-2-carboxylic acid {2-cyclohex-1-enyl-4-[1-(2-methylamino-acetyl)-piperidin-4-yl]-phenyl}-amide] | 1.4 | – |
| N#Cc1c[nH]c(C(=O)Nc2ccc(C3CCNCC3)cc2C2=CCCCC2)c1 [Example 13, 4-Cyano-1H-pyrrole-2-carboxylic acid (2-cyclohex-1-enyl-4-piperidin-4-yl-phenyl)-amide trifluoroacetic acid salt] | 12 | – |
| O=C(Nc1ccc(C2CCNCC2)cc1C1=CCCCC1)c1nnc(Cl)[nH]1 [Example 50, 5-Chloro-4H-[1,2,4]-triazole-3-carboxylic acid (2-cyclohex-1-enyl-4-piperidin-4-yl-phenyl)-amide trifluoroacetic acid salt] | 60 | – |
| C[C@@H]1CC(c2ccc(NC(=O)c3ncc(C#N)[nH]3)c(C3=CCCCC3)c2)C[C@H](C)N1 (stereo partly drawn) [Example 51a, 5-Cyano-1H-imidazole-2-carboxylic acid [2-cyclohex-1-enyl-4-(cis-2,6-dimethyl-piperidin-4-yl)-phenyl]-amide bis trifluoroacetic acid salt] | 0.2 | – |
| Cc1cscc1-c1cc(N2CCN(C)CC2)ccc1NC(=O)c1ccc(C#N)o1 [Example 5, 5-Cyano-furan-2-carboxylic acid [4-(4-methyl-piperazin-1-yl)-2-(4-methyl-thiophen-3-yl)-phenyl]-amide] | 950 | – |
| N#Cc1c[nH]c(C(=O)Nc2ccc(C3CCNCC3)cc2C2=CCS(=O)(=O)CC2)n1 [Example 36, 4-Cyano-1H-imidazole-2-carboxylic acid [2-(1,1-dioxo-1,2,3,6-tetrahydro-1λ^6-thiopyran-4-yl)-4-piperidin-4-yl-phenyl]-amide trifluoroacetic acid salt] | 60 | – |
| CC1(C)CC=C(c2nc(C3CCNCC3)ccc2NC(=O)c2nc(C#N)c[nH]2)CC1 [Example 54, 4-Cyano-1H-imidazole-2-carboxylic acid [6-(4,4-dimethyl-cyclohex-1-enyl)-1′,2′,3′,4′,5′,6′-hexahydro-[2,4′]bipyridinyl-5-yl]-amide trifluoroacetic acid salt] | 0.8 | – |
| N#Cc1c[nH]c(C(=O)Nc2ccc(C3CCS(=O)(=O)CC3)cc2C2=CCCCC2)n1 [Example 35, 4-Cyano-1H-imidazole-2-carboxylic acid [2-cyclohex-1-enyl-4-(1,1-dioxo-hexahydro-1λ^6-thiopyran-4-yl)-phenyl]-amide] | 2.9 | – |
| O=C(Nc1ccc(C2CCNCC2)cc1C1=CCCCC1)c1nnc[nH]1 [Example 49, 4H-[1,2,4]-triazole-3-carboxylic acid (2-cyclohex-1-enyl-4-piperidin-4-yl-phenyl)-amide bis trifluoroacetic acid salt] | 60 | – |
| CN1CCN(c2ccc(NC(=O)c3ccc(C#N)o3)c(C3=CCOCC3)c2)CC1 [Example 12] | 60 | – |
| CC1CC=C(c2cc(C3CCN(Cc4ccccn4)CC3)ccc2NC(=O)c2nc(C#N)c[nH]2)CC1 (stereo not shown) [Example 22, 4-Cyano-1H-imidazole-2-carboxylic acid [2-(4-methyl-cyclohex-1-enyl)-4-(1-pyridin-2-ylmethyl-piperidin-4-yl)-phenyl]-amide trifluoroacetic acid salt] | 1.4 | – |
| CN1CCN(c2ccc(NC(=O)c3ccc(C#N)o3)c(-c3ccccc3F)c2)CC1 [Example 10, 5-Cyano-furan-2-carboxylic acid [2′-fluoro-5-(4-methyl-piperazin-1-yl)-biphenyl-2-yl]-amide] | 900 | – |
| Cc1ccccc1-c1cc(N2CCN(C)CC2)ccc1NC(=O)c1ccc(C#N)o1 [Example 9, 5-Cyano-furan-2-carboxylic acid [2 ′-methyl-5-(4-methyl-piperazin-1-yl)-biphenyl-2-yl]-amide] | 630 | – |
